The values that follow come from ChEMBL document CHEMBL1944509, “Methyl-monofluorination of ibuprofen selectively increases its inhibitory activity toward cyclooxygenase-1 leading to enhanced analgesic activity and reduced gastric damage in vivo” (Bioorg Med Chem Lett, 2011).

Assay [1] has as its target T1, Prostaglandin G/H synthase 1 (Ovis aries) (UniProt P05979).
T1 sequence (whole entry): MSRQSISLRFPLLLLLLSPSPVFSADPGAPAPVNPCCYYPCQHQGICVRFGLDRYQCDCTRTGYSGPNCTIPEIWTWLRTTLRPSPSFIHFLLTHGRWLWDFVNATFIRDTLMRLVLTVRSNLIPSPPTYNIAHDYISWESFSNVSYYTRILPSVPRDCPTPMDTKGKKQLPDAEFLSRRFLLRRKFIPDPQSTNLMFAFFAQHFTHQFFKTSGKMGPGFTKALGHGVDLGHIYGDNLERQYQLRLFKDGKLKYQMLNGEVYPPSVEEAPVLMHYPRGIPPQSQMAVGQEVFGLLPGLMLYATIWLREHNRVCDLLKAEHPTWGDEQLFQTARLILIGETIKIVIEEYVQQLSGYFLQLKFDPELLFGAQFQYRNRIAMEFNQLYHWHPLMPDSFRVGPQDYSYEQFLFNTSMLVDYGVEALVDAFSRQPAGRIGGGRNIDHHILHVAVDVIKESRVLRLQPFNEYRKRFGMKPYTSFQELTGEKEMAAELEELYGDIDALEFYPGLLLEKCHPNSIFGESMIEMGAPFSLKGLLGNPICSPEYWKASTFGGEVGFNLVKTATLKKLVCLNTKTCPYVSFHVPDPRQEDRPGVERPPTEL
As to the kind of experiment: Inhibition of ovine COX1 up to 1 mM by EIA.

Assay [2] deals with T2, Prostaglandin G/H synthase 2 (Homo sapiens) (UniProt P35354).
T2 sequence (whole entry): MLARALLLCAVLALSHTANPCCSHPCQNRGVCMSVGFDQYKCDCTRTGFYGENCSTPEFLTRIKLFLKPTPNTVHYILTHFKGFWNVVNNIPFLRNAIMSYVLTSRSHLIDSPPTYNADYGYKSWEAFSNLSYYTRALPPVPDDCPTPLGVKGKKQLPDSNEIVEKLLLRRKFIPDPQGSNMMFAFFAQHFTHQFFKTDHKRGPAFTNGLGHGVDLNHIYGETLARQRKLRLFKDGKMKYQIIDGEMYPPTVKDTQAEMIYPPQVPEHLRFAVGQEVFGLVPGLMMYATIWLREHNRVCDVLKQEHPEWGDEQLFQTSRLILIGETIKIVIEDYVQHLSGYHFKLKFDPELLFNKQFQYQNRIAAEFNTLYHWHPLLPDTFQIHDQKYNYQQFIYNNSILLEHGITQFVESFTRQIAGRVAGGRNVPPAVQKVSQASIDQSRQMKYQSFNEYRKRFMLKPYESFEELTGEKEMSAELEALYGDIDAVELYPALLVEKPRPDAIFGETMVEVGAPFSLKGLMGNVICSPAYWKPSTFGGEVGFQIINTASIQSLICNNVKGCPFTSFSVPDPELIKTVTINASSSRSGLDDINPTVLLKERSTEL
As to the kind of experiment: Inhibition of human recombinant COX2 up to 1 mM by EIA.

Calls of active or inactive are those of the source. The calls are words filed in the database; no cut-off is given here.

With `CC(C)Cc1ccc([C@@H](CF)C(=O)O)cc1`, the inhibition result in assay [1] and in assay [2] was “inactive” throughout.
